Results: patent US20240208955A1 (RESEARCH TRIANGLE INSTITUTE, priority 2021, published 2024)
Where two headings read alike, the source gives them in different places.

Assays:
human RXFP3 = target: T1, human RXFP3 (Homo sapiens, UniProt Q9NSD7); assay: RXFP3 cAMP accumulation assay (inhibition of relaxin-3 activity) in stable CHO human RXFP3 cells
T1 sequence (Q9NSD7 1-469): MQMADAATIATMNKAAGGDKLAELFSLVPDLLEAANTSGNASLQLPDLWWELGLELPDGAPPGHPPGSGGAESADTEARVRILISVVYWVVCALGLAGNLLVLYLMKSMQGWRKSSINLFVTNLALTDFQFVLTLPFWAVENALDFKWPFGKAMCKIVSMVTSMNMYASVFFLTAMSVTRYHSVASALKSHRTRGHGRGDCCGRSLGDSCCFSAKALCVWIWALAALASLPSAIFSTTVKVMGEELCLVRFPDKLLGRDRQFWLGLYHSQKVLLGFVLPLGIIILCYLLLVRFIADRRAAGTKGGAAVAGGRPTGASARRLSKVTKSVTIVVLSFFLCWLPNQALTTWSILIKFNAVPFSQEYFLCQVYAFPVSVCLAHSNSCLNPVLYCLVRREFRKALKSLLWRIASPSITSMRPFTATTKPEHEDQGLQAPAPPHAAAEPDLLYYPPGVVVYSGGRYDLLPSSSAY
Description: The assay is based on the competition between a europium chelate-labeled cAMP tracer and unlabeled cAMP produced by cells. […] CHO human RXFP3 cells were cultured in F12 media supplemented with 10% FBS, 100 units/mL penicillin, 100 μg/mL streptomycin, and 400 μg/mL geneticin. Stimulation buffer containing 1×HBSS, 5 mM HEPES (pH 7.4), 0.1% BSA stabilizer, and 0.5 mM IBMX was prepared. A concentration response curve of each test compound was prepared at 4 times the desired final concentration in 4% DMSO/stimulation buffer, and 5 μL was added to the assay plate. […] Forskolin (1 μM) was prepared at 4 times the desired concentration in stimulation buffer, and 5 μL was added to the assay plate. Cells were lifted from flasks with versene and spun at 270 g for 5 min. The cell pellet was resuspended in stimulation buffer and 5000 cells (5 μL) were added to each well. After incubating for 30 min at room temperature, Eu cAMP tracer and uLIGHT-anticAMP working solutions were added per the manufacturer's instructions.

RXFP1 = target: T2, RXFP1 (Homo sapiens, UniProt Q9HBX9); assay: Activity at RXFP1 (selectivity); type: cell-based; conditions: all concentrations tested up to 30 μM
T2 sequence (Q9HBX9 1-757): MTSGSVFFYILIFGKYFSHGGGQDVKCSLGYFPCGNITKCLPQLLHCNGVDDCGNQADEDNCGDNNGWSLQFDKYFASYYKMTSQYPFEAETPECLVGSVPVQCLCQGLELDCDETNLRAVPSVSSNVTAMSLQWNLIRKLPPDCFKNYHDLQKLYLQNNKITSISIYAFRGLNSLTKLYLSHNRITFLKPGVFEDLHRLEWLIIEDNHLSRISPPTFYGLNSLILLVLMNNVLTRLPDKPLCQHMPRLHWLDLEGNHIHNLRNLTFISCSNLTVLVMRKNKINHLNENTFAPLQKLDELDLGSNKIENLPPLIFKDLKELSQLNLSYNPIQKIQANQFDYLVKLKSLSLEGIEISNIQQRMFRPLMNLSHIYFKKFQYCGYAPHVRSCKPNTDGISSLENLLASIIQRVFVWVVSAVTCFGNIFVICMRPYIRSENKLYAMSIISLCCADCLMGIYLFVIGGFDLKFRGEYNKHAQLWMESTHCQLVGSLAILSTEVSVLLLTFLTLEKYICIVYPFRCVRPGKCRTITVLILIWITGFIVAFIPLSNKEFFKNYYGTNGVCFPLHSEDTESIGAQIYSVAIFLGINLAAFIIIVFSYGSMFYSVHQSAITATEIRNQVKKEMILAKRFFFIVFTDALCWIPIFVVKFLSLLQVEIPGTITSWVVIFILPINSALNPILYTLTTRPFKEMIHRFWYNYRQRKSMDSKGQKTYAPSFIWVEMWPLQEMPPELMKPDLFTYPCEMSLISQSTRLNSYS
Description: It is believed that these compounds represent the first series of small molecule RXFP3 antagonists to be described.

[1] = IC50 (functional RXFP3 antagonist), inhibition of relaxin-3 activity, RXFP3-CHO cAMP assay

SMILES | IC50 (human RXFP3) [nM] | further results
O=C(Nc1ccc(-c2nc(-c3ccccc3)no2)cc1)C1CC(=O)N(Cc2ccccc2)C1 (stereo not shown) [RLX-2, 1-Benzyl-N-[4-(3-phenyl-1,2,4-oxadiazol-5-yl)phenyl]-5-oxopyrrolidine-3-carboxamide] | 7530 ± 998 | 
Cc1ccc(-c2noc(-c3ccc(NC(=O)C4CC(=O)N(CCc5ccccc5)C4)cc3)n2)cc1 (stereo not shown) [RLX-4, N-{4-[3-(4-Methylphenyl)-1,2,4-oxadiazol-5-yl]phenyl}-5-oxo-1-(2-phenylethyl)pyrrolidine-3-carboxamide] | > 10000 | 
Cc1ccc(-c2noc(-c3ccc(NC(=O)C4CC(=O)N(Cc5cccc(C)c5)C4)cc3)n2)cc1 (stereo not shown) [RLX-8, 1-[(3-Methylphenyl)methyl]-N-{4-[3-(4-methylphenyl)-1,2,4-oxadiazol-5-yl]phenyl}-5-oxopyrrolidine-3-carboxamide] | > 10000 | 
Cc1ccc(-c2noc(-c3ccc(NC(=O)C4CC(=O)N(Cc5ccccn5)C4)cc3)n2)cc1 (stereo not shown) [RLX-9, N-{4-[3-(4-Methylphenyl)-1,2,4-oxadiazol-5-yl]phenyl}-5-oxo-1-[(pyridin-2-yl)methyl]-pyrrolidine-3-carboxamide] | 4810 ± 682 | 
O=C(Nc1ccc(-c2nc(-c3ccccc3)no2)cc1)C1CC(=O)N(Cc2cccnc2)C1 (stereo not shown) [RLX-16, 5-Oxo-N-[4-(3-phenyl-1,2,4-oxadiazol-5-yl)phenyl]-1-[(pyridin-3-yl)methyl]-pyrrolidine-3-carboxamide] | 6610 ± 909 | 
Cc1cccc(-c2noc(-c3ccc(NC(=O)C4CC(=O)N(Cc5cccnc5)C4)cc3)n2)c1 (stereo not shown) [RLX-17, N-{4-[3-(3-Methylphenyl)-1,2,4-oxadiazol-5-yl]phenyl}-5-oxo-1-[(pyridin-3-yl)methyl]-pyrrolidine-3-carboxamide] | 5350 ± 1340 | 
COc1ccc(-c2noc(-c3ccc(NC(=O)C4CC(=O)N(Cc5cccnc5)C4)cc3)n2)cc1 (stereo not shown) [RLX-22, N-{4-[3-(4-Methoxyphenyl)-1,2,4-oxadiazol-5-yl]phenyl}-5-oxo-1-[(pyridin-3-yl)methyl]-pyrrolidine-3-carboxamide] |  | IC50 (nM) (human RXFP3; inhibition of relaxin-3 (0.6 nM) activity, forskolin-stimulated cAMP accumulation, CHO human RXFP3 cells, mean ± SEM of at least three independent experiments in duplicate): Not active
O=C(Nc1ccc(-c2nc(-c3ccc(C(F)(F)F)cc3)no2)cc1)C1CC(=O)N(Cc2ccco2)C1 (stereo not shown) [RLX-32, 1-[(Furan-2-yl)methyl]-5-oxo-N-(4-{3-[4-(trifluoromethyl)phenyl]-1,2,4-oxadiazol-5-yl}phenyl)pyrrolidine-3-carboxamide] | 6680 ± 349 | 
Cc1ccc(-c2noc(-c3ccc(NC(=O)C4CCN(Cc5ccccc5)C4)cc3)n2)cc1 (stereo not shown) [RLX-37, 1-Benyl-N-{4-[3-(4-methylphenyl)-1,2,4-oxadiazol-5-yl]phenyl}-pyrrolidine-3-carboxamide] | > 10000 | 
Cc1ccc(-c2noc(-c3ccc(NC(=O)CCNCc4ccccc4)cc3)n2)cc1 [RLX-39, 3-[Benzylamino]-N-{4-[3-(4-methylphenyl)-1,2,4-oxadiazol-5-yl]phenyl}propanamide] | 5590 ± 623 | 

More lines, in order of falling IC50 (human RXFP3), values ahead:

IC50 (human RXFP3) [nM] | SMILES | further results
2890 ± 193 | O=C(Nc1ccc(-c2nc(-c3ccc(Br)cc3)no2)cc1)C1CC(=O)N(Cc2cccnc2)C1 (stereo not shown) [RLX-25, N-{4-[3-(4-Bromophenyl)-1,2,4-oxadiazol-5-yl]phenyl}-5-oxo-1-[(pyridin-3-yl)methyl]-pyrrolidine-3-carboxamide] | 
2880 ± 321 | O=C(Nc1ccc(-c2nc(-c3ccc(Cl)cc3)no2)cc1)C1CC(=O)N(Cc2ccco2)C1 (stereo not shown) [RLX-33, N-{4-[3-(4-Chlorophenyl)-1,2,4-oxadiazol-5-yl]phenyl}-1-[(furan-2-yl)methyl]-5-oxopyrrolidine-3-carboxamide] | activity at RXFP1 (RXFP1): no activity; IC50 (human RXFP3; [1]): 2900 nM
2720 ± 384 | Cc1ccc(-c2noc(-c3ccc(NC(=O)C4CC(=O)N(C)C4)cc3)n2)cc1 (stereo not shown) [RLX-15, 1-Methyl-N-{4-[3-(4-methylphenyl)-1,2,4-oxadiazol-5-yl]phenyl}-5-oxopyrrolidine-3-carboxamide] | 
2500 ± 97 | O=C(Nc1ccc(-c2nc(-c3ccc(C(F)(F)F)cc3)no2)cc1)C1CC(=O)N(Cc2cccnc2)C1 (stereo not shown) [RLX-21, 5-Oxo-1-[(pyridin-3-yl)methyl]-N-(4-{3-[4-(trifluoromethyl)phenyl]-1,2,4-oxadiazol-5-yl}phenyl)-pyrrolidine-3-carboxamide] | 
2350 ± 248 | Cc1ccc(-c2noc(-c3ccc(NC(=O)C4CC(=O)N(Cc5cccnc5)C4)cc3)n2)cc1 (stereo not shown) [RLX-10, N-{4-[3-(4-Methylphenyl)-1,2,4-oxadiazol-5-yl]phenyl}-5-oxo-1-[(pyridin-3-yl)methyl]-pyrrolidine-3-carboxamide] | 
1910 ± 367 | O=C(Nc1ccc(-c2nc(-c3ccc(F)cc3)no2)cc1)C1CC(=O)N(Cc2cccnc2)C1 (stereo not shown) [RLX-20, N-{4-[3-(4-Fluorophenyl)-1,2,4-oxadiazol-5-yl]phenyl}-5-oxo-1-[(pyridin-3-yl)methyl]-pyrrolidine-3-carboxamide] | 
1340 ± 226 | O=C(Nc1ccc(-c2nc(-c3cccc(F)c3)no2)cc1)C1CC(=O)N(Cc2cccnc2)C1 (stereo not shown) [RLX-19, N-{4-[3-(3-Fluorophenyl)-1,2,4-oxadiazol-5-yl]phenyl}-5-oxo-1-(3-pyridinylmethyl) pyrrolidine-3-carboxamide] | IC50 (human RXFP3; [1]): 1300 nM
1250 ± 219 | O=C(Nc1ccc(-c2nc(-c3ccc(Cl)cc3)no2)cc1)C1CC(=O)N(Cc2cccnc2)C1 (stereo not shown) [RLX-24, N-{4-[3-(4-Chlorophenyl)-1,2,4-oxadiazol-5-yl]phenyl}-5-oxo-1-[(pyridin-3-yl)methyl]-pyrrolidine-3-carboxamide] | IC50 (human RXFP3; [1]): 1200 nM
